Data set [1] concerns (CUG)10 RNA (SEQ ID NO: 3). Briefly: SPR binding to immobilized biotinylated RNA. The conditions noted are these: for Off-rates (koff) / On-rates (kon) / apparent KD / sequence selectivity: SPR; for sequence selectivity: CUG repeats versus other RNAs. As for the experimental part:
(§1) SPR binding measurements were performed on a Biacore-X instrument (Biacore, Inc., Uppsala, Sweden) with two flow channels (FC1 and FC2). 5′-Biotinylated-RNA sequences, with a C6 linker separating the biotin label from the RNA (Integrated DNA Technologies Inc.) were immobilized on streptavidin (Rockland Immunochemicals) functionalized carboxylmethyl dextran coated sensor chips (CM5, G.E. Healthcare) using EDC/NHS (Advanced ChemTech) coupling chemistry. Filtered (0.2μ), degassed and autoclaved HBS-N buffer (0.01M Hepes, pH=7.4, 0.15 M NaCl) was employed as sample and as running buffer for all SPR experiments. A typical protocol for an experiment is as follows: A CM5 sensor chip was allowed to equilibrate to room temperature and then docked into the instrument. Following priming with running buffer, FC1 and FC2 were conditioned by manual injection of 20 μL aqueous NaOH (50 mM) at a flow rate of 30 μL/min. This was repeated 3 times followed by a wash command. Next, the carboxyl groups on the sensor chip surface in both flow cells were activated separately by injecting 60 μL of freshly prepared 1:1 mixture of EDC (0.4 M) and NHS (0.1 M) at a 5 μL/min flow rate followed by a wash. […] After washing, the surface was deactivated with 60 μL injection of ethanolamine (1M, pH=8.5) at 5 μL/min. The flow cells were primed, and the streptavidin surface in FC1 alone was blocked with 30 μL of biotin (20 μM in HBS-N) at 5 μL/min. The RNA (200 nM in running buffer, HBS-N) to be immobilized was unfolded by heating above its predicted melting temperature in a heated block for 2 min and then allowed to refold by cooling gradually to room temperature. The RNA was then immobilized in FC2 alone to response units ranging from 200-1000 RU using a 5 μL/min flow rate. Representative sensorgrams for the immobilization procedure is shown in FIGS. 2A-B. Two 20 μL aliquots of NaCl (0.5 M) were injected at a 30 μL/min flow rate to remove non-specifically bound RNA. The level of RNA immobilized was noted when the baseline was stable, usually after repeated buffer injection followed by a “prime” command. Binding measurements were performed by flowing various concentrations of the compounds to be analyzed over the immobilized RNA and recording the reference-subtracted (FC2−FC1) sensorgrams. For kinetic analysis, at least five sensorgrams corresponding to different concentrations of compound (usually ranging from 0.05-1 μM in HBS-N) were obtained using flow rates of either 60 μL/min or 30 μL/min. The experimental sensorgrams were globally fitted to a 1:1 binding equation (Biaevaluation software) to obtain association rates (ka) and dissociation rates ([…]) as well as equilibrium binding constants (KD). To measure the binding stoichiometry (n), the relations in equations (1-3) below were used: […]
(§2) where RUmax is the maximum resonance response unit at saturation, RURNA is the amount RU of RNA immobilized, n is the stoichiometry, MWcompound and MWRNA are molecular weights of compound and RNA respectively, and RUeq represents the resonance response at steady-state (equilibrium). The response units at equilibrium were subjected to Scatchard binding plots of (r/Cfree vs. r).
This technique allows the association and dissociation rates (ka and kd), equilibrium binding constants (KD), and the binding stoichiometry (n) to be measured in a label-free format (Liu and Wilson, “Quantitative Analysis of Small Molecule-nucleic Acid Interactions with a Biosensor Surface and Surface Plasmon Resonance Detection,” Methods Mol. Biol. 613:1-23 (2010), which is hereby incorporated by reference in its entirety).
Background: In SPR one partner is held on a chip, and binding of the other changes the refractive index at the surface.

Data set [2] has as its system (CUG)2 RNA (SEQ ID NO: 1). Briefly: SPR binding to immobilized biotinylated RNA. The conditions noted are these: Table 7, SPR. As for the experimental part:
as §1, §2
(§3) The binding characteristics of compounds 3-11 were evaluated against pathogenic CUG^exp RNA and other RNA sequences by SPR. This technique allows the association and dissociation rates (ka and kd), equilibrium binding constants (KD), and the binding stoichiometry (n) to be measured in a label-free format (Liu and Wilson, “Quantitative Analysis of Small Molecule-nucleic Acid Interactions with a Biosensor Surface and Surface Plasmon Resonance Detection,” Methods Mol. Biol. 613:1-23 (2010), which is hereby incorporated by reference in its entirety). […]

The subject of data set [3] is mouse C2C12 myoblasts. The data set is described as follows: Cell permeability by fluorescence microscopy. It is filed as cell-based. The settings on record: 12 h, 125 μM, intrinsic fluorescence. As for the experimental part: For cell permeability studies, human fibroblasts or mouse myoblasts grown to 80% confluence were exposed to compounds for 12 hours in a 96 well tissue culture plate. After removal of the culture media (DMEM, with 10% FBS, 1% pen-strep (GIBCO)) the cells were washed twice with PBS to remove excess compounds. Cells were then imaged while in buffer under a fluorescence microscope (Olympus IX70) in the 96-well plate using a 460 nm emission filter.

The subject of data set [4] is (CCUG)10 RNA (SEQ ID NO: 4). Briefly: SPR binding to immobilized biotinylated RNA. The conditions noted are these: (CCUG)10; for Off-rates (koff) / On-rates (kon): SPR. As to the method:
as §1, §2, §3

Data set [5] relates to (CAG)10 RNA (SEQ ID NO: 5). Briefly: SPR binding to immobilized biotinylated RNA. The settings on record: for Off-rates (koff) / On-rates (kon): SPR. As for the experimental part:
as §1, §2, §3

Data set [6] has as its system CUG-CAG duplex ("Duplex") (SEQ ID NO: 6). The data set is described as follows: SPR binding to immobilized biotinylated RNA. The settings on record: Duplex. As for the experimental part: as §1, §2, §3
For data set [7], the system named is HIV-1 FSS RNA (SEQ ID NO: 7). The data set is described as follows: SPR binding to immobilized biotinylated RNA. The conditions noted are these: for Off-rates (koff) / On-rates (kon): SPR. As for the experimental part:
as §1
where RUmax is the maximum resonance response unit at saturation, RURNA is the amount RU of RNA immobilized, n is the stoichiometry, MWcompound and MWRNA are molecular weights of compound and RNA respectively, and RUeq represents the resonance response at steady-state (equilibrium). The response units at equilibrium were subjected to Scatchard binding plots of (r/Cfree vs. r). […]
SPR and fluorescence titration experiments, performed using the protocol described in Examples 3 and 4 above, except using as the target a highly conserved RNA sequence responsible for regulating the production of the Gag-Pol polyprotein via a −1 ribosomal frameshift, which occurs along a “slippery sequence” in gag-pol mRNA (SEQ ID NO: 7). This “frameshift stimulatory sequence” (or “HIV-1 FSS”) consists of an upper stemloop and a lower stem, separated by a purine bulge in the most common types of HIV (FIG. 19). For the fluorescent titration experiments, the upper stemloop of SEQ ID NO: 7 was employed. Cell uptake and toxicity studies were carried out using human fibroblasts according to Example 5 above.

Data set [8] concerns HSA^LR transgenic mice. The data set is described as follows: MBNL1-dependent splicing in mouse myotonic dystrophy model (RT-PCR, vastus muscle). The conditions noted are these: 40 mg/kg intraperitoneally once per day for 5 days. The format is in vivo. As to the method:
Mouse handling and experimental procedures were conducted in accordance with the Association for Assessment and Accreditation of Laboratory Animal Care. […] Age- and gender-matched HSA^LR mice (12-16 weeks old) were injected intraperitoneally with 40 mg/kg of compounds or saline alone once per day for 5 days. Mice were sacrificed one day after the last injection, and vastus muscle was obtained for splicing analysis. RNA extraction, cDNA preparation, and RT-PCR were performed as described previously. The PCR products were electrophoresed on agarose gels for separation, and scanned with a laser fluorimager (Typhoon, GE Healthcare). Quantitative analysis of amplified products was performed by ImageQuant software (Molecular Dynamics). Differences between two groups were evaluated by unpaired Student's t-test. A critical test of a compound's performance is its ability to function in vivo. DM1 has several well-studied mouse models (Gomes-Pereira et al., “Myotonic Dystrophy Mouse Models: Towards Rational Therapy Development,” Trends Mol. Med. 17:506-517 (2011), which is hereby incorporated by reference in its entirety). Compound activity in the HSA^LR mouse model, in which transgenic mice carry a long CTG repeat inserted into the human skeletal actin (HSA) gene in skeletal muscle (Mankodi, “Myotonic Dystrophy in Transgenic Mice Expressing an Expanded CUG Repeat,” Science 289:1769-1772 (2000), which is hereby incorporated by reference in its entirety) was examined. […] They also display aberrant splicing of genes, including Clcn1 and Atp2a1, which are hallmarks of nuclear transcript sequestration.

We go through three compounds from patent US20140050778A1, “NUCLEIC ACID BINDING COMPOUNDS, METHODS OF MAKING, AND USE THEREOF” (UNIVERSITY OF ROCHESTER, priority 2010, published 2014).

The Kd is the constant that tells how readily two partners part at equilibrium. For `CCc1nc2cc3ccccc3cc2cc1C(=O)N1CCC[C@H]1C(=O)N(C)[C@@H](C/C=C/C[C@@H](C(=O)N(C)[C@@H](CCCCN)C(=O)NCCCN)N(C)C(=O)[C@@H]1CCCN1C(=O)c1cc2cc3ccccc3cc2nc1CC)C(=O)N(C)[C@@H](CCCCN)C(=O)NCCCN` [22 (E)], the ka entry in data set [1] (Table 7, SPR, (CUG)10) was “bka = 1.2 ± 0.3E+4/M * s”; in data set [2] it was “ka = 1.9 ± 0.4E+4/M * s”. Further, the kd result in data set [1] (Table 7, SPR, (CUG)10) is “kd = 8.7 ± 0.3E−4/s”; in data set [2], “kd = 8 ± 4E−4/s”. In addition, in data set [1] (Table 7, SPR, (CUG)10, read-out: KD), the dissociation constant (Kd) worked out at 72 nM.

In the case of `CCc1nc2cc3ccccc3cc2cc1C(=O)N[C@@H](CCCCN)C(=O)N[C@@H](C/C=C/C[C@H](NC(=O)[C@H](CCCCN)NC(=O)c1cc2cc3ccccc3cc2nc1CC)C(=O)N1CCC[C@H]1C(=O)NCCCN)C(=O)N1CCC[C@H]1C(=O)NCCCN` [Compound 9], the “Residence time (t1/2) for compound binding to RNA” value came to 4.0527 min in data set [1] ((CUG)10); 4.262 min in data set [4]; 3.3575 min in data set [5]; 6.2097 min in data set [6]; 5.775 min in data set [7]. Further, the “Off-rates (koff)” value in data set [1] ((CUG)10) came out at 0.00285 s⁻¹; in data set [4], 0.00271 s⁻¹; in data set [5], 0.00344 s⁻¹; in data set [6] (SPR), 0.00186 s⁻¹; in data set [7] it was 0.002 s⁻¹. For the same compound, the “On-rates (kon)” value in data set [1] ((CUG)10) came out at 24200 M⁻¹ s⁻¹; in data set [4] it was 19900 M⁻¹ s⁻¹; in data set [5], 15700 M⁻¹ s⁻¹; in data set [6] (SPR), 24300 M⁻¹ s⁻¹; in data set [7], 32300 M⁻¹ s⁻¹. In addition, the “apparent KD” value in data set [1] ((CUG)10) was “reduced affinity”. The sequence selectivity result in data set [1] is “no selectivity for CUG or CCUG repeats relative to duplex CUG-CAG or HIV-1 FSS RNAs”. For the same compound, the “cell membrane penetration / localization” value in data set [3] is reported as “significantly less able to enter cells than compounds 4, 5, or 11”. Further, the “improvement of Clcn1 splicing” value in data set [8] is reported as “not”.

As to `NCCCC[C@H](NC(=O)[C@H](C/C=C\C[C@H](NC(=O)[C@@H]1CCCN1)C(=O)N[C@@H](CCCCN)C(=O)NCCCN)NC(=O)[C@@H]1CCCN1)C(=O)NCCCN` [Compound 6], the “Residence time (t1/2) for compound binding to RNA” value worked out at 0.3318 min in data set [1] ((CUG)10), 0.0387 min in data set [4], 0.6015 min in data set [5] and 0.4493 min in data set [7]. Moreover, the “Off-rates (koff)” value in data set [1] ((CUG)10) is 0.0348 s⁻¹; in data set [4] it was 0.299 s⁻¹; in data set [5], 0.0192 s⁻¹; in data set [7], 0.0257 s⁻¹. For the same compound, the “On-rates (kon)” value in data set [1] ((CUG)10) turned out to be 132000 M⁻¹ s⁻¹; in data set [4], 13600 M⁻¹ s⁻¹; in data set [5] it was 125000 M⁻¹ s⁻¹; in data set [7], 221000 M⁻¹ s⁻¹. Besides, the “apparent KD” value in data set [1] ((CUG)10) was “modest affinity”. Moreover, the sequence selectivity entry in data set [1] is “neither displayed any selectivity”.
